Test results published in PubChem BioAssay AID330 (DTP/NCI, 2004).
Toxic doses and inconclusive results are not listed.

Tested on: P388 leukemia ip, CD2F1 mice, survival T/C
Experiment: NCI In Vivo Anticancer Drug Screen. Data for tumor model P388 Leukemia (intraperitoneal) in CD2F1 (CDF1) mice
Details: endpoint: median survival time, higher = longer survival
Outline: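 Mice carrying the transplanted tumor received test compound or vehicle. Survival was recorded in each group, and the value is the treated-group measurement divided by that of the vehicle-treated control group.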

[1] = dose: 60.0 mg/kg/injection, schedule: Q01DX005 (ip), vehicle: saline with Tween-80
[2] = dose: 120.0 mg/kg/injection, schedule: Q01DX005 (ip), vehicle: saline with Tween-80
[3] = dose: 240.0 mg/kg/injection, schedule: Q01DX005 (ip), vehicle: saline with Tween-80

SMILES: CS(=O)CCC1C(=O)OC(C(C)(C)C)N1C(=O)c1ccccc1 (stereo not drawn)
- T/C [1]: 101 % of control
- T/C [2]: 100 % of control
- T/C [3]: 105 % of control

SMILES: O=C1C=CC(O)C2OC12 (stereo not drawn)
- T/C (dose: 5.0 mg/kg/injection, schedule: Q04DX002 (ip), vehicle: saline): 111 % of control
- T/C (dose: 10.0 mg/kg/injection, schedule: Q04DX002 (ip), vehicle: saline): 113 % of control

SMILES: CS(=O)(=O)c1nnc(-c2cc[n+]([O-])cc2)s1
- T/C (dose: 6.25 mg/kg/injection, schedule: Q01DX005 (ip), vehicle: Klucel (hydroxypropylcellulose) (HPC)): 114 % of control
- T/C (dose: 12.5 mg/kg/injection, schedule: Q01DX005 (ip), vehicle: Klucel (hydroxypropylcellulose) (HPC)): 114 % of control

SMILES: CN(C)CC(C)(CN(C)C)C(=O)/C=C/c1c(Cl)cccc1Cl
- T/C [1]: 115 % of control
- T/C [2]: 120 % of control

SMILES: CCCCCCC(=O)/C=C/c1ccc(OCOC)cc1
- T/C (dose: 50.0 mg/kg/injection, schedule: Q01DX009 (ip), vehicle: saline + alcohol): 97 % of control
- T/C (dose: 100.0 mg/kg/injection, schedule: Q01DX009 (ip), vehicle: saline + alcohol): 121 % of control
- T/C (dose: 200.0 mg/kg/injection, schedule: Q01DX009 (ip), vehicle: saline + alcohol): 100 % of control

SMILES: CC(=O)OC1C2C3C2C2C1C32 (stereo not drawn)
- T/C (dose: 100.0 mg/kg/injection, schedule: Q04DX002 (ip), vehicle: other): 113 % of control
- T/C (dose: 200.0 mg/kg/injection, schedule: Q04DX002 (ip), vehicle: other): 106 % of control
- T/C (dose: 400.0 mg/kg/injection, schedule: Q04DX002 (ip), vehicle: other): 103 % of control

SMILES: O/N=C/C=N/O.O/N=C/C=N/O.[Ni]
- T/C (dose: 0.78 mg/kg/injection, schedule: Q01DX009 (ip), vehicle: saline): 100 % of control
- T/C (dose: 1.56 mg/kg/injection, schedule: Q01DX009 (ip), vehicle: saline): 98 % of control
- T/C (dose: 3.13 mg/kg/injection, schedule: Q01DX009 (ip), vehicle: saline): 91 % of control
- T/C (dose: 6.25 mg/kg/injection, schedule: Q01DX009 (ip), vehicle: saline): 97 % of control
- T/C (dose: 12.5 mg/kg/injection, schedule: Q01DX009 (ip), vehicle: saline): 100 % of control

SMILES: COc1ccc(OC)c(NC(=O)CCCC(=O)CC(=O)C(C)(C)C)c1
- T/C [1]: 101 % of control
- T/C [2]: 104 % of control
- T/C [3]: 93 % of control
